Measurements as given in patent publication US8357717B2, “Spiro group-containing amide compounds having bradykinin 1 receptor (B1R) activity” (Gruenenthal GmbH, priority 2009, dated 2013).

Assays:
[1] = biological target: T1, B1R receptor of the rat (rB1R) (Rattus norvegicus, UniProt P97583); experiment: FLIPR Ca2+ functional study on bradykinin receptor 1, rB1R cells (CHO K1); type: cell-based; details: 10 μM test substance; CHO K1 cells with rat B1R; agonist Des-Arg9-bradykinin at EC80; read-out: B1R antagonism, rat [10 μM] % inhibition
T1 construct: expressed in transfected cells; host or cells: CHO K1 cells, stably transfected
T1 sequence (P97583 1-337): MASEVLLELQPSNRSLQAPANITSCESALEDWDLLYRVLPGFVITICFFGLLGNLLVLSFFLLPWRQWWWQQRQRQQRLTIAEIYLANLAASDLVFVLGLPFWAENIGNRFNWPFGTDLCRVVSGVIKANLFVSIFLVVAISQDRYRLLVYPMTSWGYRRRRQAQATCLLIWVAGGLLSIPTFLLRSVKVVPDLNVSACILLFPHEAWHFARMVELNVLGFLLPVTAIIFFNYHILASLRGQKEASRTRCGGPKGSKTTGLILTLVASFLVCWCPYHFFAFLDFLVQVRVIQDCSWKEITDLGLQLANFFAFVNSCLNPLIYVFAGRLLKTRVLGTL
Method in brief: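 Stably transfected CHO K1 cells loaded with Fluo-4; FLIPR Ca2+ fluorescence (ex 488/em 540 nm, peak counts). Compounds (10 μM, or concentration series for IC50) preincubated 10–20 min, then EC80 agonist added (human: Lys-Des-Arg9-bradykinin; rat: Des-Arg9-bradykinin); % inhibition versus maximum achievable, n=2–3, N≥2.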

[2] = biological target: T2, human B1R receptor (hB1R) (Homo sapiens, UniProt P46663); experiment: FLIPR Ca2+ functional study on bradykinin receptor 1, hB1R cells (CHO K1); type: cell-based; details: CHO-K1, 10 μM test substance; CHO K1 cells with human B1R; agonist Lys-Des-Arg9-bradykinin at EC80; read-out: B1R antagonism, human [10 μM] % inhibition
T2 construct: expressed in transfected cells; host or cells: CHO K1 cells, stably transfected
T2 sequence (P46663 1-353): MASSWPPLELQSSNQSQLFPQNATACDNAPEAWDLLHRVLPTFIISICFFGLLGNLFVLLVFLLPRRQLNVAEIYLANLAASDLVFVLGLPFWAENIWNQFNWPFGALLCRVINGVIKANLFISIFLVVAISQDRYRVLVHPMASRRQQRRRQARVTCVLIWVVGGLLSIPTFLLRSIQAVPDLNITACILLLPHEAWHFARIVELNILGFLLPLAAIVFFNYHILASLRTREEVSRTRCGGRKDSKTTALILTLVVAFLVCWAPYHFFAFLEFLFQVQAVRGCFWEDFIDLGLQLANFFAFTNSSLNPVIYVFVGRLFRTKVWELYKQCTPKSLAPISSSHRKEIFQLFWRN
Protocol: The agonistic or antagonistic activity of substances can be quantified on the bradykinin receptor 1 (B1R) of the species human and rat using ectopically expressing cell lines (CHO K1 cells) and with the aid of a Ca^2+-sensitive dye (Fluo-4) using a fluorescent imaging plate reader (FLIPR). The indication in % activation is based on the Ca^2+ signal after addition of Lys-Des-Arg^9-bradykinin (0.5 nM) or Des-Arg^9-bradykinin (100 nM). Antagonists lead to suppression of the Ca^2+ influx after the addition of the agonist. % Inhibition compared with the maximum achievable inhibition is indicated.
The agonistic or antagonistic activity of substances can be determined on the bradykinin receptor 1 (B1R) of the species human and rat using the following assay. According to this assay, the Ca^2+ influx through the channel is quantified with the aid of a Ca^2+-sensitive dye (Fluo-4 type, Molecular Probes Europe BV, Leiden, Netherlands) using a Fluorescent Imaging Plate Reader (FLIPR, Molecular Devices, Sunnyvale, USA).
Chinese hamster ovary cells (CHO K1 cells) which have been stably transfected with the human B1R gene (hB1R cells) or with the B1R gene of the rat (rB1R cells) are used. For functional studies, the cells are plated out on black 96-well plates having a clear base (BD Biosciences, Heidelberg, Germany or Greiner, Frickenhausen, Germany) in a density of 20,000-35,000 cells/well. The cells are left overnight at 37° C. and with 5% CO2 in culture medium (hB1R cells: Nutrient Mixture Ham's F12, Gibco Invitrogen GmbH, Karlsruhe, Germany or DMEM, Sigma-Aldrich, Taufkirchen, Germany; rB1R cells: D-MEM/F12, Gibco Invitrogen GmbH, Karlsruhe, Germany), with 10 vol. % FBS (fetal bovine serum, Gibco Invitrogen GmbH, Karlsruhe, Germany or PAN Biotech GmbH, Aidenbach, Germany). On the following day, the cells are loaded for 60 minutes at 37° C. with 2.13 μM Fluo-4 (Molecular Probes Europe BV, Leiden, Netherlands) in HBSS buffer (Hank's buffered saline solution, Gibco Invitrogen GmbH, Karlsruhe, Germany) […] (Sigma-Aldrich, Taufkirchen, Germany) and 10 mM HEPES (Sigma-Aldrich, Taufkirchen, Germany). The plates are then washed twice with HBSS buffer, and HBSS buffer additionally containing 0.1% BSA (bovine serum albumin; Sigma-Aldrich, Taufkirchen, Germany), 5.6 mM glucose and 0.05% gelatin (Merck KGaA, Darmstadt, Germany) is added to the plates. After incubation for a further 20 minutes at room temperature, the plates are inserted into the FLIPR for Ca^2+ measurement. Alternatively, washing is carried out with buffer A (15 mM HEPES, 80 mM NaCl, 5 mM KCl, 1.2 mM CaCl2, 0.7 mM MgSO4, 2 g/l glucose, 2.5 mM probenecid) followed by loading with buffer A with added 2.5 μM Fluo-4 and 0.025% Pluronic F127 (Sigma-Aldrich, Taufkirchen, Germany). The cells are then washed twice with buffer A and incubated for 30 minutes at room temperature with buffer A additionally containing 0.05% BSA and 0.05% gelatin and are then inserted into the FLIPR for Ca^2+ measurement. The Ca^2+-dependent fluorescence is measured before and after the addition of substances (λex=488 nm, λem=540 nm). Quantification is carried out by measuring the highest fluorescence intensity (FC, fluorescence counts) over time.
The FLIPR protocol consists of two substance additions. Test substances (10 μM) are first pipetted onto the cells and the Ca^2+ influx is compared with the control (hB1R: Lys-Des-Arg^9-bradykinin >=50 nM; rB1R: Des-Arg^9-bradykinin 10 μM). This gives the activation in %, based on the Ca^2+ signal after addition of Lys-Des-Arg^9-bradykinin (>=50 nM) or Des-Arg^9-bradykinin (10 μM). After 10-20 minutes' incubation, Lys-Des-Arg^9-bradykinin (hB1R) or Des-Arg^9-bradykinin (rB1R) is applied in the concentration of the EC80, and the influx of Ca^2+ is likewise determined. Antagonists lead to suppression of the Ca^2+ influx. The % inhibition compared with the maximum achievable inhibition is calculated. […]

SMILES	inhibition at 10 µM [1] [%]	inhibition at 10 µM [2] [%]
COc1cc(C)c(S(=O)(=O)N2CCn3cc(C(=O)N4CCC5(CC4)CCN(c4ccncc4)CC5)nc3C2)c(C)c1 [Compound G-40, (7-(4-Methoxy-2,6-dimethylphenylsulfonyl)-5,6,7,8-tetrahydroimidazo[1,2-a]pyrazin-2-yl)(9-(pyridin-4-yl)-3,9-diazaspiro[5.5]undecan-3-yl)methanone]	102	100
O=C(c1ccc(Cl)s1)N1CCc2cccc(C(=O)N3CCC4(CC3)CCN(c3ccncc3)CC4)c2C1 [Compound G-44, (5-Chlorothiophen-2-yl)(8-(9-(pyridin-4-yl)-3,9-diazaspiro[5.5]undecane-3-carbonyl)-3,4-dihydroisoquinolin-2(1H)-yl)methanone]	62	99
O=C(Nc1ccc(Cl)c(Cl)c1)N1CCc2onc(C(=O)N3CCC4(CC3)CCN(c3ccncc3)CC4)c2C1 [Compound G-46, N-(3,4-Dichlorophenyl)-3-(9-(pyridin-4-yl)-3,9-diazaspiro[5.5]undecane-3-carbonyl)-6,7-dihydroisoxazolo[4,5-c]pyridine-5(4H)-carboxamide]	57	35
Cc1cccc(Cl)c1S(=O)(=O)N1CCCc2ccc(CC(=O)N3CCC4(CCN(c5ccncc5)CC4)C3)cc21 [Compound G-51, 2-(1-(2-Chloro-6-methylphenylsulfonyl)-1,2,3,4-tetrahydroquinolin-7-yl)-1-(8-(pyridin-4-yl)-2,8-diazaspiro[4.5]decan-2-yl)ethanone]	106	100
O=C(Cc1ccc2c(c1)N(S(=O)(=O)c1cccc3ccccc13)CCC2)N1CCC2(CCN(c3ccncc3)CC2)C1 [Compound G-52, 2-(1-(Naphthalin-1-ylsulfonyl)-1,2,3,4-tetrahydroquinolin-7-yl)-1-(8-(pyridin-4-yl)-2,8-diazaspiro[4.5]decan-2-yl)ethanone]	106	98
O=C(Cc1ccc2c(c1)N(S(=O)(=O)c1cccc3ccccc13)CCC2)N1CCC2(CCN(c3ccncc3)C2)C1 (stereo not shown) [Compound G-53, 2-(1-(Naphthalin-1-ylsulfonyl)-1,2,3,4-tetrahydroquinolin-7-yl)-1-(7-(pyridin-4-yl)-2,7-diazaspiro[4.4]nonan-2-yl)ethanone]	105	95

Next, values leading:

inhibition at 10 µM [1] [%]	inhibition at 10 µM [2] [%]	SMILES
90	99	O=C(/C=C/c1ccccc1Cl)N1CCc2ccc(C(=O)N3CCC4(CC3)CCN(c3ccncc3)CC4)cc2C1 [Compound G-41, 3-(2-Chlorophenyl)-1-(7-(9-(pyridin-4-yl)-3,9-diazaspiro[5.5]undecane-3-carbonyl)-3,4-dihydroisoquinolin-2(1H)-yl)prop-2-en-1-one]
102	100	O=C(c1ccc2c(c1)CN(C(=O)c1ccc(Cl)s1)CC2)N1CCC2(CC1)CCN(c1ccncc1)CC2 [Compound G-42, (5-Chlorothiophen-2-yl)(7-(9-(pyridin-4-yl)-3,9-diazaspiro[5.5]undecane-3-carbonyl)-3,4-dihydroisoquinolin-2(1H)-yl)methanone]
102	99	O=C(Cc1ccccc1Cl)N1CCc2ccc(C(=O)N3CCC4(CC3)CCN(c3ccncc3)CC4)cc2C1 [Compound G-43, 2-(2-Chlorophenyl)-1-(7-(9-(pyridin-4-yl)-3,9-diazaspiro[5.5]undecane-3-carbonyl)-3,4-dihydroisoquinolin-2(1H)-yl)ethanone]
97	97	O=C(NCc1ccccc1Cl)N1CCc2ccc(C(=O)N3CCC4(CC3)CCN(c3ccncc3)CC4)cc2C1 [Compound G-45, N-(2-Chlorobenzyl)-7-(9-(pyridin-4-yl)-3,9-diazaspiro[5.5]undecane-3-carbonyl)-3,4-dihydroisoquinoline-2(1H)-carboxamide]
80	72	Cc1ccc(S(=O)(=O)N2CCc3ccc(C(=O)N4CCC5(CC4)CCN(c4ccncc4)CC5)cc3C2)c2ccccc12 [Compound G-47, (2-(4-Methylnaphthalin-1-ylsulfonyl)-1,2,3,4-tetrahydroisoquinolin-7-yl)(9-(pyridin-4-yl)-3,9-diazaspiro[5.5]undecan-3-yl)methanone]
95	73	COc1ccc(S(=O)(=O)N2CCc3ccc(C(=O)N4CCC5(CC4)CCN(c4ccncc4)CC5)cc3C2)c2ccccc12 [Compound G-48, (2-(4-Methoxynaphthalin-1-ylsulfonyl)-1,2,3,4-tetrahydroisoquinolin-7-yl)(9-(pyridin-4-yl)-3,9-diazaspiro[5.5]undecan-3-yl)methanone]
106	99	O=C(c1ccc2c(c1)CN(C(=O)C(c1ccccc1)c1ccccc1)CC2)N1CCC2(CC1)CCN(c1ccncc1)CC2 [Compound G-49, 2,2-Diphenyl-1-(7-(9-(pyridin-4-yl)-3,9-diazaspiro[5.5]undecane-3-carbonyl)-3,4-dihydroisoquinolin-2(1H)-yl)ethanone]
91	69	O=C(c1ccc2c(c1)CN(S(=O)(=O)c1ccc(Cl)c3ccccc13)CC2)N1CCC2(CC1)CCN(c1ccncc1)CC2 [Compound G-50, (2-(4-Chloronaphthalin-1-ylsulfonyl)-1,2,3,4-tetrahydroisoquinolin-7-yl)(9-(pyridin-4-yl)-3,9-diazaspiro[5.5]undecan-3-yl)methanone]
